Source: ChEMBL document CHEMBL1149088, “A non-peptide NK1 receptor agonist showing subpicomolar affinity” (J Med Chem, 2004)
pIC50: −log10 of the molar value.

Columns and labels:
Substance-P receptor [1] = molecular target: T1, Substance-P receptor (Homo sapiens, UniProt P25103); test: Binding affinity against human Tachykinin receptor 1 expressed in astrocytoma UC11MG cells using [125I]- SP radioligand; format: cell-based
Substance-P receptor [2] = molecular target: T1, Substance-P receptor; conditions: UC11MG
Substance-P receptor [3] = molecular target: T1, Substance-P receptor; test: Inhibition of labeled SP total binding against human Tachykinin receptor 1 expressed in astrocytoma UC11MG cells by the second binding component; format: cell-based
Endothelial cell [4] = test: Concentration required to produce cyclic GMP levels in postcapillary endothelial cells isolated from bovine heart (CVEC); format: functional, cell-based; conditions: Bos taurus
Endothelial cell [5] = test: Concentration required to produce maximum effect on postcapillary endothelial cells isolated from bovine heart (CVEC) proliferation; format: functional, cell-based; conditions: Bos taurus
Endothelial cell [6] = test: Concentration required to produce maximum stimulation in tritiated inositol monophosphate (IP1) level in postcapillary endothelial cells isolated from bovine heart (CVEC); format: functional, cell-based; conditions: Bos taurus

T1 sequence (P25103 whole entry): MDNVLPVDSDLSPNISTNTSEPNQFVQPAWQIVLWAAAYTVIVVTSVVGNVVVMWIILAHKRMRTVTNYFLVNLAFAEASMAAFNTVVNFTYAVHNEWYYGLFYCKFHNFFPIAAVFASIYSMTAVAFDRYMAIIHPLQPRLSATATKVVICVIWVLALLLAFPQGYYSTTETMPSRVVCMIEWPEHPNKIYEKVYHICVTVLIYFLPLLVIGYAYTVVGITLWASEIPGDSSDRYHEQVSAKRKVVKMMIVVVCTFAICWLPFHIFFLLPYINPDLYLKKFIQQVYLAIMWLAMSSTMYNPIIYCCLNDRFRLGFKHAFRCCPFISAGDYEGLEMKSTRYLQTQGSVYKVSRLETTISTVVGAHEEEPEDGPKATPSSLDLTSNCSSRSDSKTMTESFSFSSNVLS

Structure (SMILES)	pIC50 (Substance-P receptor [1])	Binding (Substance-P receptor [2]) [%]	further results
O=C(NCc1cc(C(F)(F)F)cc(C(F)(F)F)c1)c1cnc2ccccc2c1-c1ccccc1	< 6.00	–	–
O=C(NCc1cc(C(F)(F)F)cc(C(F)(F)F)c1)c1c(CCl)nc2ccccc2c1-c1ccccc1	7.59	57	–
CN(Cc1cc(C(F)(F)F)cc(C(F)(F)F)c1)C(=O)c1c(CBr)nc2ccccc2c1-c1ccccc1	7.28	100	–
CC(C)(C)[Si](C)(C)OCc1nc2ccccc2c(-c2ccccc2)c1C(=O)NCc1cc(C(F)(F)F)cc(C(F)(F)F)c1	7.77	100	–
CN(Cc1cc(C(F)(F)F)cc(C(F)(F)F)c1)C(=O)c1c(CN)nc2ccccc2c1-c1ccccc1	8.05	100	–
O=C(NCc1cc(C(F)(F)F)cc(C(F)(F)F)c1)c1c(CN2C(=O)c3ccccc3C2=O)nc2ccccc2c1-c1ccccc1	< 6.00	–	–
NCc1nc2ccccc2c(-c2ccccc2)c1C(=O)NCc1cc(C(F)(F)F)cc(C(F)(F)F)c1	11.77	100	–
Ic1ccccc1CN[C@@H]1C2CCN(CC2)[C@@H]1C(c1ccccc1)c1ccccc1	8.80	100	–
CN(Cc1ccccc1)Cc1nc2ccccc2c(-c2ccccc2)c1C(=O)NCc1cc(C(F)(F)F)cc(C(F)(F)F)c1	6.74	71	–
CNCc1nc2ccccc2c(-c2ccccc2)c1C(=O)NCc1cc(C(F)(F)F)cc(C(F)(F)F)c1	10.96	82	–
COCc1nc2ccccc2c(-c2ccccc2)c1C(=O)N(C)Cc1cc(C(F)(F)F)cc(C(F)(F)F)c1	7.96	100	–
Cc1nc2ccccc2c(-c2ccccc2)c1C(=O)NCc1cc(C(F)(F)F)cc(C(F)(F)F)c1	10.12	78	pIC50 (Substance-P receptor [3]): 5.41
O=C(NCc1cc(C(F)(F)F)cc(C(F)(F)F)c1)c1c(CBr)nc2ccccc2c1-c1ccccc1	11.00	71	–
CN(Cc1cc(C(F)(F)F)cc(C(F)(F)F)c1)C(=O)c1c(CO)nc2ccccc2c1-c1ccccc1	–	75	–
O=C(NCc1cc(C(F)(F)F)cc(C(F)(F)F)c1)c1c(CO)nc2ccccc2c1-c1ccccc1	13.00	100	Concentration (Endothelial cell [4]): 100 nM; Concentration (Endothelial cell [5]): 0.1 nM; Concentration (Endothelial cell [6]): 1000 nM
CN(Cc1cc(C(F)(F)F)cc(C(F)(F)F)c1)C(=O)c1cnc2ccccc2c1-c1ccccc1	10.52	83	–
CN(C)Cc1nc2ccccc2c(-c2ccccc2)c1C(=O)NCc1cc(C(F)(F)F)cc(C(F)(F)F)c1	9.66	40	pIC50 (Substance-P receptor [3]): 7.96
CN1CCN(Cc2nc3ccccc3c(-c3ccccc3)c2C(=O)NCc2cc(C(F)(F)F)cc(C(F)(F)F)c2)CC1	< 6.00	–	–
Cc1nc2ccccc2c(-c2ccccc2)c1C(=O)N(C)Cc1cc(C(F)(F)F)cc(C(F)(F)F)c1	8.51	73	–
